Here are results for seven molecules from PubChem BioAssay AID1259407 (Chemical Carcinogenesis Research Information System (CCRIS), 2018).

Activity calls are given as the source filed them. No rule for the calls is given here.

This data set relates to CCRIS mutagenicity, Ames/micronucleus/aberration tests. As to the kind of experiment: CCRIS mutagenicity studies.
The mark [1] stands for this setting: Test System: AMES SALMONELLA TYPHIMURIUM, Strain/Indicator: TA98, Metabolic Activation: NONE, Method: STANDARD PLATE.
[2] abbreviates: Test System: AMES SALMONELLA TYPHIMURIUM, Strain/Indicator: TA98, Metabolic Activation: RAT, LIVER, S-9, AROCLOR 1254, Method: STANDARD PLATE.
Where [3] appears, read: Test System: AMES SALMONELLA TYPHIMURIUM, Strain/Indicator: TA100, Metabolic Activation: NONE, Method: STANDARD PLATE.
[4] abbreviates: Test System: AMES SALMONELLA TYPHIMURIUM, Strain/Indicator: TA100, Metabolic Activation: RAT, LIVER, S-9, AROCLOR 1254, Method: STANDARD PLATE.
Setting [5] is: Test System: AMES SALMONELLA TYPHIMURIUM, Strain/Indicator: TA1535, Metabolic Activation: NONE, Method: STANDARD PLATE.
Setting [6] is: Test System: AMES SALMONELLA TYPHIMURIUM, Strain/Indicator: TA1535, Metabolic Activation: RAT, LIVER, S-9, AROCLOR 1254, Method: STANDARD PLATE.
The mark [7] stands for this setting: Test System: AMES SALMONELLA TYPHIMURIUM, Strain/Indicator: TA1537, Metabolic Activation: NONE, Method: STANDARD PLATE.
The mark [8] stands for this setting: Test System: AMES SALMONELLA TYPHIMURIUM, Strain/Indicator: TA1537, Metabolic Activation: RAT, LIVER, S-9, AROCLOR 1254, Method: STANDARD PLATE.
[9] abbreviates: Test System: AMES SALMONELLA TYPHIMURIUM, Strain/Indicator: TA1538, Metabolic Activation: NONE, Method: STANDARD PLATE.
The mark [10] stands for this setting: Test System: AMES SALMONELLA TYPHIMURIUM, Strain/Indicator: TA1538, Metabolic Activation: RAT, LIVER, S-9, AROCLOR 1254, Method: STANDARD PLATE.
Setting [11] is: Test System: AMES SALMONELLA TYPHIMURIUM, Strain/Indicator: TA98, Metabolic Activation: NONE, Method: PREINCUBATION

For `CCC(C)ON=O` (stereo not drawn), the mutagenic call reads like this: (Test System: AMES SALMONELLA TYPHIMURIUM, Strain/Indicator: TA98, Metabolic Activation: HAMSTER, LIVER, S-9, AROCLOR 1254, Method: STANDARD PLATE) “inactive; negative”; under setting [1], “inactive; negative”; under setting [2], “inactive; negative”; (Test System: AMES SALMONELLA TYPHIMURIUM, Strain/Indicator: TA100, Metabolic Activation: HAMSTER, LIVER, S-9, AROCLOR 1254, Method: STANDARD PLATE) “inactive; negative”; under setting [3], “inactive; negative”; under setting [4], “inactive; negative”. Moreover, the mutagenic call runs as follows: (Test System: AMES SALMONELLA TYPHIMURIUM, Strain/Indicator: TA1535, Metabolic Activation: HAMSTER, LIVER, S-9, AROCLOR 1254, Method: STANDARD PLATE) “active; positive”; under setting [5], “inactive; negative”; under setting [6], “active; positive”; (Test System: AMES SALMONELLA TYPHIMURIUM, Strain/Indicator: TA1537, Metabolic Activation: HAMSTER, LIVER, S-9, AROCLOR 1254, Method: STANDARD PLATE) “inactive; negative”; under setting [7], “inactive; negative”; under setting [8], “inactive; negative”. For the same molecule, the mutagenic call (Test System: MOUSE LYMPHOMA, Strain/Indicator: L5178Y (TK+/TK-), Metabolic Activation: NONE, Method: SUSPENSION/PLATE) is “active; positive. reevaluation of results: positive” and the mutagenic call (Test System: MOUSE LYMPHOMA, Strain/Indicator: L5178Y (TK+/TK-), Metabolic Activation: RAT, LIVER, S-9, AROCLOR 1254, Method: SUSPENSION/PLATE) is “active; positive. reevaluation of results: positive”.

Regarding `O=[N+]([O-])c1ccccc1C(F)(F)F`, the mutagenic call runs as follows: under setting [1], “inactive; negative”; under setting [2], “inactive; negative”; under setting [3], “inactive; negative”; under setting [4], “inactive; negative”; under setting [5], “inactive; negative”; under setting [6], “inactive; negative”. Also, the mutagenic call under setting [7] was “inactive; negative”, the mutagenic call under setting [8] is “inactive; negative”, the mutagenic call under setting [9] is “inactive; negative” and the mutagenic call under setting [10] was “inactive; negative”.

For `O=C1c2ccccc2C(=O)c2c(O)ccc(O)c21`, the mutagenic call (End Point: IN VITRO CHROMOSOMAL ABERRATIONS, Test System: CHL CELLS, Metabolic Activation: NONE) is “active; positive (structural changes); authors report equivocal results for ploidy chang”; the mutagenic call under setting [11] is “inactive; negative”; the mutagenic call (Test System: AMES SALMONELLA TYPHIMURIUM, Strain/Indicator: TA98, Metabolic Activation: RAT LIVER S-9, PHENOBARBITAL AND BETA-NAPHTHOFLAVONE, Method: PREINCUBATION) was “inactive; negative”; the mutagenic call under setting [2] is “inactive; negative”; the mutagenic call (Test System: AMES SALMONELLA TYPHIMURIUM, Strain/Indicator: TA98, Metabolic Activation: RAT, LIVER, S-9, PCB, Method: PREINCUBATION) was “inactive; negative”; the mutagenic call (Test System: AMES SALMONELLA TYPHIMURIUM, Strain/Indicator: TA100, Metabolic Activation: NONE, Method: PREINCUBATION) is “inactive; negative”. The mutagenic call reads like this: under setting [3], “inactive; negative”; (Test System: AMES SALMONELLA TYPHIMURIUM, Strain/Indicator: TA100, Metabolic Activation: RAT LIVER S-9, PHENOBARBITAL AND BETA-NAPHTHOFLAVONE, Method: PREINCUBATION) “inactive; negative”; under setting [4], “inactive; negative”; (Test System: AMES SALMONELLA TYPHIMURIUM, Strain/Indicator: TA100, Metabolic Activation: RAT, LIVER, S-9, PCB, Method: PREINCUBATION) “inactive; negative”; (Test System: AMES SALMONELLA TYPHIMURIUM, Strain/Indicator: TA102, Metabolic Activation: NONE, Method: PREINCUBATION) “active; positive”; (Test System: AMES SALMONELLA TYPHIMURIUM, Strain/Indicator: TA102, Metabolic Activation: RAT, LIVER, S-9, Method: PREINCUBATION) “active; positive”. The mutagenic call runs as follows: (Test System: AMES SALMONELLA TYPHIMURIUM, Strain/Indicator: TA1535, Metabolic Activation: NONE, Method: PREINCUBATION) “inactive; negative”; under setting [5], “inactive; negative”; (Test System: AMES SALMONELLA TYPHIMURIUM, Strain/Indicator: TA1535, Metabolic Activation: RAT LIVER S-9, PHENOBARBITAL AND BETA-NAPHTHOFLAVONE, Method: PREINCUBATION) “inactive; negative”; under setting [6], “inactive; negative”; (Test System: AMES SALMONELLA TYPHIMURIUM, Strain/Indicator: TA1537, Metabolic Activation: NONE, Method: PREINCUBATION) “active; positive”; under setting [7], “active; positive”. Besides, the mutagenic call by setting is: (Test System: AMES SALMONELLA TYPHIMURIUM, Strain/Indicator: TA1537, Metabolic Activation: RAT LIVER S-9, PHENOBARBITAL AND BETA-NAPHTHOFLAVONE, Method: PREINCUBATION) “active; positive”; under setting [8], “active; positive”; under setting [9], “inactive; negative”; under setting [10], “inactive; negative”; (Test System: E.COLI, Strain/Indicator: WP2UVRA, Metabolic Activation: NONE, Method: PREINCUBATION) “inactive; negative”; (Test System: E.COLI, Strain/Indicator: WP2UVRA, Metabolic Activation: RAT LIVER S-9, PHENOBARBITAL AND BETA-NAPHTHOFLAVONE, Method: PREINCUBATION) “inactive; negative”.

`CC(=O)N(Cl)c1ccc2c(c1)Cc1ccccc1-2`: the mutagenic call under setting [2] was “active; positive”.

As to `O=[N+]([O-])c1cccc2nc3ccccc3nc12`, the mutagenic call runs as follows: (Test System: AMES SALMONELLA TYPHIMURIUM, Strain/Indicator: TA98(NR), Metabolic Activation: NONE, Method: PREINCUBATION) “active; positive”; under setting [11], “inactive; negative”.

Consider `C#CCOCC[n+]1ccccc1/C=N/O`, for which the mutagenic call by setting is: (Test System: AMES SALMONELLA TYPHIMURIUM, Strain/Indicator: TA97, Metabolic Activation: NONE, Method: STANDARD PLATE) “inactive; negative”; (Test System: AMES SALMONELLA TYPHIMURIUM, Strain/Indicator: TA97, Metabolic Activation: RAT, LIVER, S-9, Method: STANDARD PLATE) “inactive; negative”; under setting [3], “inactive; negative”; (Test System: AMES SALMONELLA TYPHIMURIUM, Strain/Indicator: TA100, Metabolic Activation: RAT, LIVER, S-9, Method: STANDARD PLATE) “inactive; negative”; (Test System: AMES SALMONELLA TYPHIMURIUM, Strain/Indicator: TA104, Metabolic Activation: NONE, Method: STANDARD PLATE) “inactive; negative”; (Test System: AMES SALMONELLA TYPHIMURIUM, Strain/Indicator: TA104, Metabolic Activation: RAT, LIVER, S-9, Method: STANDARD PLATE) “inactive; negative”. Moreover, the mutagenic call is, setting by setting: under setting [7], “inactive; negative”; (Test System: AMES SALMONELLA TYPHIMURIUM, Strain/Indicator: TA1537, Metabolic Activation: RAT, LIVER, S-9, Method: STANDARD PLATE) “inactive; negative”; under setting [9], “inactive; negative”; (Test System: AMES SALMONELLA TYPHIMURIUM, Strain/Indicator: TA1538, Metabolic Activation: RAT, LIVER, S-9, Method: STANDARD PLATE) “inactive; negative”.

In the case of `CC(Br)C(=O)N(C)Cc1ccccc1` (stereo not drawn), the mutagenic call reads like this: (Test System: AMES SALMONELLA TYPHIMURIUM, Strain/Indicator: TA100, Metabolic Activation: MOUSE, LIVER, S-9, AROCLOR 1254, Method: STANDARD PLATE) “inactive; negative”; under setting [3], “inactive; negative”.
